Measurements: patent US5089513A, “5-lipoxygenase inhibitory thiazoles” (ICI Pharma, priority 1988, dated 1992)

Tests used:
5-LO [1] = target: T1, 5-LO (Homo sapiens, UniProt P09917); experiment: Test b) heparinised human blood challenged with A23187, LTB4 radioimmunoassay; type: cell-based
T1 construct: incubating a test compound with heparinised human blood; endogenous in cells; host or cells: leukocytes in heparinised human whole blood
T1 sequence (P09917 1-674): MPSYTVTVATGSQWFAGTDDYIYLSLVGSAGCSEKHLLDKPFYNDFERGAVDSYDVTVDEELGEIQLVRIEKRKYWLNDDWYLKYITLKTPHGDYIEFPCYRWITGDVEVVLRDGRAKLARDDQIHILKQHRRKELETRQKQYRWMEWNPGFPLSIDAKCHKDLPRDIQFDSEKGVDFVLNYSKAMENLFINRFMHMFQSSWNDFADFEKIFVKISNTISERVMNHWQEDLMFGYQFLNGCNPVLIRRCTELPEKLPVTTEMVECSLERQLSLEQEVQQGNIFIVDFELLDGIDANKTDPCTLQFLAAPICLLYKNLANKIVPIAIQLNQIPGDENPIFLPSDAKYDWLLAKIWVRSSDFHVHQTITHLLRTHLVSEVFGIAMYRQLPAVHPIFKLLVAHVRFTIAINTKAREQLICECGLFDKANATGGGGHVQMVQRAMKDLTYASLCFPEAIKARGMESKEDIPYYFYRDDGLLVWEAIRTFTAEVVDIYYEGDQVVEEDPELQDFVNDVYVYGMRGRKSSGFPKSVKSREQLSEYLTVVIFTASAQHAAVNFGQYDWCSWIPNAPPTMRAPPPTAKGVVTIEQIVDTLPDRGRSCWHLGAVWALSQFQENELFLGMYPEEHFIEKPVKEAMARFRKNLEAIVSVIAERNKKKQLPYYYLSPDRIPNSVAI
Description: b) An in vitro assay system involving incubating a test compound with heparinised human blood, prior to challenge with the calcium ionophore A23187 and then indirectly measuring the inhibitory effects on 5-LO by assaying the amount of LTB4 using the specific radioimmunoassay described by Carey and Forder (F. Carey and R. A. Forder, Brit. […] This test provides an indication of the effects of a test compound against 5-LO and also cyclooxygenase in the presence of blood cells and proteins. It permits the selectivity of the inhibitory effect on 5-LO or cyclooxygenase to be assessed.

5-LO [2] = target: T2, 5-LO (Rattus norvegicus, UniProt P12527); experiment: Test c) ex vivo assay, blood collected after oral administration, A23187 challenge, LTB4 radioimmunoassay; type: in vivo
T2 construct: blood collection, heparinisation, challenge with A23187 and radioimmunoassay of LTB4 and TxB2; endogenous in cells
T2 sequence (P12527 1-673): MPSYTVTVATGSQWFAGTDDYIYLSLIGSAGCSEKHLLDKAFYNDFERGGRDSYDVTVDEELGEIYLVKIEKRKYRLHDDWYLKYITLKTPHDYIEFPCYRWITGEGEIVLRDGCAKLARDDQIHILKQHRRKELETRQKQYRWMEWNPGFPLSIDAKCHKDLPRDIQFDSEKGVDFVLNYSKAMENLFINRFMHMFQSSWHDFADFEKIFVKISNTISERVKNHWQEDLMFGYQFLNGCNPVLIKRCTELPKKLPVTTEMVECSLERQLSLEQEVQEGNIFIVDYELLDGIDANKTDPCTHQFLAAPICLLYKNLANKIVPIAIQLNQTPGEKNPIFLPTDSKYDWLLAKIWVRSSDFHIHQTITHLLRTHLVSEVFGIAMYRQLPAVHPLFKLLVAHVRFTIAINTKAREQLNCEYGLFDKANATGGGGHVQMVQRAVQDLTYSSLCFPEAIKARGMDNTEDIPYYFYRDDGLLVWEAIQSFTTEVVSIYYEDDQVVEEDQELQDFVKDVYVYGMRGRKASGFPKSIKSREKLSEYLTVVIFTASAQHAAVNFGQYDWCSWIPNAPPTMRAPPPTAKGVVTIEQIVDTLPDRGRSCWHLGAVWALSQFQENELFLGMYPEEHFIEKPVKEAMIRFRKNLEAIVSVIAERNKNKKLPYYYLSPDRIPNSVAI

5-LO [3] = target: T3, 5-LO (Cavia porcellus, UniProt A0A286X958); experiment: Test a) in vitro spectrophotometric cell free enzyme assay using 5-LO isolated from guinea pig neutrophils; type: biochemical
T3 construct: 5-LO isolated from guinea pig neutrophils; endogenous in cells; host or cells: guinea pig neutrophils (enzyme isolated, soluble, cell-free)
T3 sequence (A0A286X958 1-674): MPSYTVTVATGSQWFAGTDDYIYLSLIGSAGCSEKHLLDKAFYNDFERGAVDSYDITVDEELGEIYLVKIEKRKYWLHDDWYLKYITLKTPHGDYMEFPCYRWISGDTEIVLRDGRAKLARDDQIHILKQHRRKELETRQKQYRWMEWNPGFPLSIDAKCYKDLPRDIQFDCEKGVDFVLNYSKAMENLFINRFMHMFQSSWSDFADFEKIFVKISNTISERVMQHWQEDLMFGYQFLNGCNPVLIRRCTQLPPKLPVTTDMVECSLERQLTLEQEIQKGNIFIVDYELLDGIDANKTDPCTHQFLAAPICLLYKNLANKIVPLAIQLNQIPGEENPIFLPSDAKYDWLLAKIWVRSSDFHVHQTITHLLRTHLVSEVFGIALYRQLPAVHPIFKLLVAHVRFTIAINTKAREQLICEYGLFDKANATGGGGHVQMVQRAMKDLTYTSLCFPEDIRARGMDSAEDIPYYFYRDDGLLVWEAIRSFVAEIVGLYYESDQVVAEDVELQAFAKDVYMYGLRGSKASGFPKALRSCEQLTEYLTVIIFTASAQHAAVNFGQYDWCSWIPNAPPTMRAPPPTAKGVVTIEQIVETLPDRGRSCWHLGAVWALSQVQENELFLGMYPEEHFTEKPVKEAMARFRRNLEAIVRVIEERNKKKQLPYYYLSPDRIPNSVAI
Excerpt: a) An in vitro spectrophotometric enzyme assay system, which assesses the inhibitory properties of a test compound in a cell free system using 5-LO isolated from guinea pig neutrophils and as described by D.Aharony and R. L. Stein (J. Biol. Chem., 1986, 261(25), 11512-11519). This test provides a measure of the intrinsic inhibitory properties against soluble 5-LO in an extracellular environment.

cyclooxygenase = target: T4, cyclooxygenase (Homo sapiens, UniProt P23219); experiment: Test b) heparinised human blood challenged with A23187, TxB2 radioimmunoassay; type: cell-based
T4 construct: incubating a test compound with heparinised human blood; endogenous in cells; host or cells: blood cells (mainly platelets, own knowledge) in heparinised human whole blood
Description: b) An in vitro assay system involving incubating a test compound with heparinised human blood, prior to challenge with the calcium ionophore A23187 and then indirectly measuring the inhibitory effects on 5-LO by assaying the amount of LTB4 using the specific radioimmunoassay described by Carey and Forder (F. Carey and R. A. Forder, Brit. J. Pharmacol. 1985, 84, 34P) which involves the use of a protein-LTB4 conjugate produced using the procedure of Young et alia (Prostaglandins, 1983, 26(4),605-613). The effects of a test compound on the enzyme cyclooxygenase (which is involved in the alternative metabolic pathway for arachidonic acid and gives rise to prostaglandins, thromboxanes and related metabolites) may be measured at the same time using the specific radioimmunoassay for thromboxane B2 (TxB2) described by Carey and Forder (see above). This test provides an indication of the effects of a test compound against 5-LO and also cyclooxygenase in the presence of blood cells and proteins. It permits the selectivity of the inhibitory effect on 5-LO or cyclooxygenase to be assessed.

T4 sequence (P23219 24-599): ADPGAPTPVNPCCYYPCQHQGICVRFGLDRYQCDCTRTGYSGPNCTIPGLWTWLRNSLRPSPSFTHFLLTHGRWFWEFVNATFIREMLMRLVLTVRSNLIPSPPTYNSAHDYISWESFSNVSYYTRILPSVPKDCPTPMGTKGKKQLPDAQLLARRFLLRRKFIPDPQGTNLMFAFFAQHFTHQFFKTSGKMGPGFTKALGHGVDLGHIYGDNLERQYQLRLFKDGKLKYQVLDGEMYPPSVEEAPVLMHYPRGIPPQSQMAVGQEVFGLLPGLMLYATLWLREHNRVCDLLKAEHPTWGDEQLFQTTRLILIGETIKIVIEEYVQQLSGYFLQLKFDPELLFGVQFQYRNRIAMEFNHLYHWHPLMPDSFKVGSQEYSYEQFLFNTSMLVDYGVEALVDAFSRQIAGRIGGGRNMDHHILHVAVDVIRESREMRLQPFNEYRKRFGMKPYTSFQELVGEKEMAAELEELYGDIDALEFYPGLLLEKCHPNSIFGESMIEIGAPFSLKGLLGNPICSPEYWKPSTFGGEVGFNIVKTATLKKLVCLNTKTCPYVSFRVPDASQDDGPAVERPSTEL

Row | IC50 (5-LO [1]) | ED50 (5-LO [2]) | IC50 (5-LO [3]) | IC50 (cyclooxygenase) | Compound
1 | 0.04 µM | 10 mg/kg |  |  | CCC(OC)(c1cccc(OCC#Cc2ccc(F)cc2)c1)c1nccs1 (centres unmarked) [2-[1-[3-(3-(4-fluorophenyl)prop-2-ynyloxy)phenyl]-1-methoxypropyl]thiazole]
2 |  | 10 mg/kg | 0.1 µM | > 100 µM | CCC(OC)(c1cccc(OCc2ccc3ccccc3c2)c1)c1nccs1 (centres unmarked) [2-[1-methoxy-1-[3-(naphth-2-ylmethoxy)phenyl]propyl]thiazole]
